Results from patent US10421722B2, “Sulfur-containing compounds targeting vesicular acetylcholine transporter” (Washington University, priority 2016, dated 2019).

Key:
VAChT [1] = target: VAChT (Rattus norvegicus (Rat), UniProt Q62666); assay: Ex vivo autoradiography of rat brain; type: in vivo, Sprague-Dawley rat; details: for uptake ratio of radioactivity in striatum versus cerebellum: 30 slices, 60 min post-injection, tail vein; for brain distribution of radioactivity (autoradiograms): 1 h after injection
Experimental: Ex vivo autoradiography was performed on 6-8 month old male Sprague-Dawley rats to confirm the brain distribution of radiolabeled VAChT ligands. Mature male Sprague-Dawley rats were injected with ˜500 μCi of (−)-[^11C]3 or (−)-[^18F]9a via the tail vein under isoflurane/oxygen anesthesia, respectively. The rats were euthanized after 1 h and the brains were quickly removed and placed in a metal brain matrix with slots spaced at 1 mm intervals. The brains were then frozen in the matrix and sectioned into 100 μm coronal slices. Brain slices were carefully removed from the brain matrix razor blades and placed on a clear sheet covered with film and mounting on glass slides. Then, the brain sections were exposed to the film in an imaging cassette for 12 h before they were counted by the FLA7000. Photographic images were obtained using a flatbed scanner. […] There was also moderate uptake in other regions, which may be caused by the moderate binding activity to σ1 receptor. The quantification of autoradiography from entire 30 brain slices indicated the uptake ratio of radioactivity in striatum versus cerebellum reached 1.75 and 1.54, respectively. (FIGS. 6B and 6D)

VAChT [2] = details: cynomolgus monkey, in vivo
Experimental: PET studies were performed on adult male cynomolgus monkeys (6-8 kg) with a MicroPET Focus 220 scanner (Concorde/CTI/Siemens Microsystems, Knoxville, Tenn.). The animal was anesthetized using an intramuscular injection with ketamine (10-20 mg/kg) and glycopyrrolate (0.013-0.017 mg/kg) and then transported to the PET scanner suit. After arrival, the animal was intubated with an endotracheal tube and anesthesia was maintained at 0.75-2.0% isoflurane/oxygen throughout the procedure, and then a percutaneous venous catheter was placed for radiotracer injection. A heated water blanket was used to keep the temperature at 37° C. In each MicroPET scanning session, the head was positioned supine in the adjustable head holder with the brain in the center of the field of view. A 10-min transmission scan was performed to check positioning; once confirmed, a 45 min transmission scan was obtained for attenuation correction. Subsequently, a 2 h dynamic emission scan was acquired after administration of 296-410 MBq of (−)-[^11C]3 or (−)-[^18F]9a via the venous catheter. PET scans were collected from 0-120 min with the following time frames: 3×1 min, 4×2 min, 3×3 min and 20×5 min. PET image reconstructed resolution was <2.0 mm full width half maximum for all 3 dimensions at the center of the field of view. Emission data were corrected using individual attenuation and model-based scatter correction and reconstructed using filtered back projection. The first baseline PET image for each animal acted as the target image with the MPRAGE and subsequent PETs co-registered using automated image registration program AIR. All MPRAGE-based volume of interest (VOI) analyses were accomplished by experienced investigators. For quantitative analyses, three-dimensional ROIs (striatum, cerebellum, frontal cortex, occipital cortex, temporal, midbrain, hippocampus and thalamus) were transformed to the baseline PET space and then overlaid on all reconstructed PET images to obtain time-activity curves. Activity measures were standardized to body weight and dose of radioactivity injected to yield standardized uptake value (SUV).

[3] = Radiometabolite analysis of NHP arterial plasma; type: in vivo, cynomolgus monkey
Experimental: In order to further understand the kinetic property, radioactive metabolite analysis on HPLC was performed for NHP plasma. (−)-[^18F]9a was chosen for this study because of the high uptake and longer half live of ^18F. Arterial blood samples (1.2-1.5 mL) were collected at 2, 5, 15, 30, and 60 min post-injection of the radiotracer in a heparinized syringe. Aliquots of whole blood (1 mL) were counted in a well counter, then centrifuged to separate red blood cells from plasma. Aliquots of plasma (400 μL) were deproteinated using ice-cold methanol (0.92 mL) and separated by centrifugation. The solvent extract was then injected onto HPLC to identify the percentage of radioactive parent compound versus any radiolabeled metabolites. The HPLC system consisted of an Agilent SB C-18 analytic HPLC column (250 mm×4.6 mm) and an UV detector with wavelength set at 254 nm. The mobile phase was 43% acetonitrile in 0.1 M ammonium formate buffer (pH 4.5), and the flow rate was 1.0 mL/min. The HPLC fractions were collected at 1 min intervals for 16 min; each fraction was counted by a well counter to determine the radioactivity of each collection. The results were corrected for background radiation and physical decay.

human VAChT = human VAChT (Homo sapiens (Human), UniProt Q16572); assay: VAChT binding, competition against [3H]Vesamicol; details: Table 2; oxalate form; expressed human VAChT; mean ± SEM; read-out: Ki (nM) VAChT
Experimental: (§1) In vitro binding studies were performed to measure the affinities to the VAChT and σ1 and σ2 receptors. VAChT binding was assayed using membrane homogenate from PC12 cells which overexpress human VAChT.^8 The σ1 and σ2 binding affinities were assayed in […], respectively.
The test compounds were assayed in increments of 10-fold from 0.1 to 10,000 nM concentration. The surfaces of containers were pre-coated with Sigmacote (Sigma-Aldrich, Mo.). Samples containing 200 μg postnuclear supernatant in 200 μL of 110 mM potassium tartrate, 20 mM HEPES (pH 7.4 with KOH), 1 mM dithiothreitol, and 0.02% sodium azide were incubated at 22° C. for 24 h. A volume of 90 μL was filtered in duplicate through GF/F glass fiber filters coated with polyethylenimine and washed. Filter-bound radioactivity was determined by liquid scintillation spectrometry for 10 min per sample. Averaged data were fitted by regression with a rectangular hyperbola to estimate Ki value. All the compounds were independently assayed at least two times.

σ1 receptor = σ1 receptor (Cavia porcellus (Guinea pig), UniProt Q60492); assay: σ1 receptor binding, [3H](+)-Pentazocine; details: for Ki: oxalate form, homogenates of guinea pig brain, mean ± SEM; for Selectivity ratio VAChT/σ1: ratio of Ki values
Experimental: as §1
(§2) Briefly, to measure the σ1 receptor binding affinity, we use guinea pig brain membrane homogenates (˜300 μg protein) tissues as the receptor resource and ˜5 nM [^3H](+)-Pentazocine (34.9 Ci/mmol, Perkin Elmer, Boston, Mass.) as the radioligand. The mixture was incubated in 96-well plates for 90 min at room temperature. Nonspecific binding was determined from samples containing 10 μM of nonradioactive Haloperidol. After 90 min, the mixture was transferred into a 96-well fiberglass filter plate (Millipore, Billerica, Mass.) presoaked with 100 μL of 50 mM Tris-HCl buffer at pH 8.0 for 60 min, followed by addition of 150 μL of ice-cold wash buffer (10 mM Tris-HCl, 150 mM NaCl, pH 7.4). The harvested samples were filtered rapidly and washed with 3×200 μL portions of ice-cold wash buffer, and the filterers were counted by a Wallac 1450 MicroBeta liquid scintillation counter (Perkin-Elmer, Boston, Mass.). […] The mixture was incubated for 120 min at room temperature. Nonspecific binding was determined from samples containing 10 μM of nonradioactive Haloperidol. All other procedures were similar to those described for the σ1 receptor binding assay above. Data from the competitive binding experiments were modeled using nonlinear regression analysis to determine the concentration that inhibits 50% of the specific binding of the radioligand. Competitive binding curves were best fit to a one-site fit and gave pseudo-Hill coefficients of 0.6-1.0. Ki values were calculated using the method of Cheng and Prusoff,^35 then presented as the mean±SEM.

σ2 receptor = σ2 receptor (Rattus norvegicus (Rat), UniProt Q5U3Y7); assay: σ2 receptor binding, [3H]DTG; details: for Ki: oxalate form, homogenates of rat liver; for Selectivity ratio VAChT/σ2: ratio of Ki values
Experimental: In vitro binding studies were performed to measure the affinities to the VAChT and σ1 and σ2 receptors. […]
as §2

Sequence of σ2 receptor (Q5U3Y7 whole entry): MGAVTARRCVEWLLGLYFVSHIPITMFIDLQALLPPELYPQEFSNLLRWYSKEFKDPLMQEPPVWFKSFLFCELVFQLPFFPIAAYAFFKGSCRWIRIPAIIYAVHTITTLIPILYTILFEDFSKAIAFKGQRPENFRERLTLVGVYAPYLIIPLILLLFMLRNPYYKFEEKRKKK
Sequence of human VAChT (Q16572 whole entry): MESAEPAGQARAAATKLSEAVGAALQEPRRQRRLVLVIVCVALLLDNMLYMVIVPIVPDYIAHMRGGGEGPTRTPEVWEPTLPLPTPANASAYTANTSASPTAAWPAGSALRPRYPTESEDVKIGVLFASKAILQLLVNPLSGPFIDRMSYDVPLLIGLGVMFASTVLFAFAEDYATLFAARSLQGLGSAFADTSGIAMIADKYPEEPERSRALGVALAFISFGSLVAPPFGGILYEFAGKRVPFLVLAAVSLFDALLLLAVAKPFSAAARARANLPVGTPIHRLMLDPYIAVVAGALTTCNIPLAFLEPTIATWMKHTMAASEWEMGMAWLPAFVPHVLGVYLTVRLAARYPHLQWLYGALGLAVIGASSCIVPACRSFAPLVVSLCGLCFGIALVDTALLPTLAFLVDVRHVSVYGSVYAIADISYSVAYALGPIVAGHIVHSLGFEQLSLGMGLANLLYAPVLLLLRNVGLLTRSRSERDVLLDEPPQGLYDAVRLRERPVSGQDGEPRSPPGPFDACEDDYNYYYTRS
Sequence of σ1 receptor (Q60492 whole entry): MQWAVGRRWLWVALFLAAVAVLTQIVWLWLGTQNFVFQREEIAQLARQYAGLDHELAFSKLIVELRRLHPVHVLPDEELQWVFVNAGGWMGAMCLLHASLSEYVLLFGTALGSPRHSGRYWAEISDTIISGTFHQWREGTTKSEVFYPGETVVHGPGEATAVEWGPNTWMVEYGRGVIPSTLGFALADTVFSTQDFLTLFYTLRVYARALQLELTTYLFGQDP
Sequence of VAChT (Rattus norvegicus (Rat), UniProt Q62666) (Q62666 whole entry): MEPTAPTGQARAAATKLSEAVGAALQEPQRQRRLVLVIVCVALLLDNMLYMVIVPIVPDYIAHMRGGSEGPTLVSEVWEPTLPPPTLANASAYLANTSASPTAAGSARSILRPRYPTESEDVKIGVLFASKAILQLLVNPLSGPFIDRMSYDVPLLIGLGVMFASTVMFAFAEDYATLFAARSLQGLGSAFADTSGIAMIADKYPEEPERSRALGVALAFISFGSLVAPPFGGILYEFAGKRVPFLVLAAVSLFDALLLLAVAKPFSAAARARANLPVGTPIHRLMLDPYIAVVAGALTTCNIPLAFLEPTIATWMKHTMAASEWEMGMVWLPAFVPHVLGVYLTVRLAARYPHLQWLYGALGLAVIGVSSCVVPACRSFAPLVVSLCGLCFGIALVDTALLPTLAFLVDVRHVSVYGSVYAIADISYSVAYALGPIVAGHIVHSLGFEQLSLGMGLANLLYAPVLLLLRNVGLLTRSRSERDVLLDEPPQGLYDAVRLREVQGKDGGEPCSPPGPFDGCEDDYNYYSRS

| Structure (SMILES) | uptake ratio of radioactivity in striatum versus cerebellum (VAChT [1]) | brain distribution of radioactivity (autoradiograms) (VAChT [1]) | brain entry (VAChT [2]) | maximum standardized uptake value (SUV) in striatum (VAChT [2]) | regional brain accumulation (VAChT [2]) | time at which striatal SUV reached maximum (VAChT [2]) [min] | percentage of parent compound in plasma ([3]; NHP arterial plasma, 2 min post-injection) [%] | percentage of parent compound in plasma ([3]; NHP arterial plasma, 5 min post-injection) [%] | percentage of parent compound in plasma ([3]; NHP arterial plasma, 15 min post-injection) [%] | percentage of parent compound in plasma ([3]; NHP arterial plasma, 30 min post-injection) [%] | percentage of parent compound in plasma ([3]; NHP arterial plasma, 60 min post-injection) [%] | percentage of hydrophilic radioactive metabolite ([3]; NHP arterial plasma, peaked after 30 min) [%] | metabolism in plasma ([3]; NHP plasma, HPLC metabolite analysis) | Ki (human VAChT) [nM] | Ki (σ1 receptor) [nM] | Selectivity ratio VAChT/σ1 (σ1 receptor) | Ki (σ2 receptor) [nM] | Selectivity ratio VAChT/σ2 (σ2 receptor) |
| --- | --- | --- | --- | --- | --- | --- | --- | --- | --- | --- | --- | --- | --- | --- | --- | --- | --- | --- |
| [11CH3]Sc1ccc(C(=O)C2CCN([C@@H]3Cc4ccccc4C[C@H]3O)CC2)cc1 (single isomer, unassigned) [(−)-[^11C]3] | 1.75 | high accumulation in the VAChT enriched striatum | able to enter the NHP brain | 4.0 | highest accumulation in the striatal region | 10 | – | – | – | – | – | – | – | – | – | – | – | – |
| O=C(c1ccc(SCC[18F])cc1)C1CCN([C@@H]2Cc3ccccc3C[C@H]2O)CC1 (single isomer, unassigned) [(−)-[^18F]9a] | 1.54 | high accumulation in the VAChT enriched striatum | able to enter the NHP brain | – | highest accumulation in the striatal region | 6 | 69 | 48 | 27 | 21 | 15 | 70 | quickly metabolized in the plasma | – | – | – | – | – |
| CS(=O)(=O)c1ccc(C(=O)C2CCN(C3Cc4ccccc4CC3O)CC2)cc1 (single isomer, unassigned; (-)) [(−)-2] | – | – | – | – | – | – | – | – | – | – | – | – | – | 4.1 ± 0.9 | 34.7 ± 4.9 | 8.5 | > 1000 | >243 |
| CSc1ccc(C(=O)C2CCN(C3Cc4ccccc4CC3O)CC2)cc1 (single isomer, unassigned; (-)) [(−)-3] | – | – | – | – | – | – | – | – | – | – | – | – | – | 1.4 | 19 ± 5.6 | 13.6 | > 1000 | >714 |
| O=C(c1ccc(SCCF)cc1)C1CCN(C2Cc3ccccc3CC2O)CC1 (single isomer, unassigned; (-)) [(−)-9a] | – | – | – | – | – | – | – | – | – | – | – | – | – | 2.2 | 30.8 ± 4.1 | 13.4 | > 1000 | >454 |
| O=C(c1ccc(SCCCF)cc1)C1CCN(C2Cc3ccccc3CC2O)CC1 (single isomer, unassigned; (-)) [(−)-9b] | – | – | – | – | – | – | – | – | – | – | – | – | – | 1.4 | 4.1 ± 0.7 | 2.9 | > 1000 | >714 |
